Test results taken from ChEMBL document CHEMBL5537177, “Discovery of Potent Antimalarial Type II Kinase Inhibitors with Selectivity over Human Kinases” (J Med Chem, 2024).
Active and inactive are the calls of the source. The rule behind the calls is not given here.

Columns and labels:
Plasmodium falciparum [1] = assay: Antimalarial activity against synchronous blood-stage Plasmodium falciparum 3D7 assessed as log of parasite reduction ratio at 10 times EC50 treated every 24 hrs for 120 hrs followed by compound washout and subsequent addition of RBCs measured after 21 days; type: functional
Plasmodium falciparum [2] = assay: Antimalarial activity against synchronous blood-stage Plasmodium falciparum 3D7 assessed as parasite clearance time at 10 times EC50 treated every 24 hrs for 120 hrs followed by compound washout and subsequent addition of RBCs measured after 21 days by parasite reduction ratio assay; type: functional
Plasmodium falciparum [3] = assay: Antimalarial activity against synchronous blood-stage Plasmodium falciparum 3D7 assessed as duration of lag phase at 10 times EC50 treated every 24 hrs for 120 hrs followed by compound washout and subsequent addition of RBCs measured after 21 days by parasite reduction ratio assay; type: functional
Plasmodium falciparum [4] = assay: microbe, parasite or virus in culture; details: Dd2, 72 h
Description: Antiplasmodial activity against asynchronous Plasmodium falciparum Dd2 assessed as parasite growth reduction incubated for 72 hrs by SYBR Green I dye based analysis

Ephrin type-A receptor 2 = Ephrin type-A receptor 2 (Homo sapiens, UniProt P29317); assay: Inhibition of human EphA2 by FRET assay
Plasmodium falciparum [5] = assay: Antimalarial activity against Plasmodium falciparum harboring CARL I1139K mutation assessed as reduction in parasitemia incubated for 72 hrs by SYBR green I dye based analysis; type: functional, organism-based
[6] = Half life in Balb/C mouse at 3 mg/kg, iv; type: ADME, organism-based; details: in vivo
Plasmodium falciparum [7] = assay: microbe, parasite or virus in culture; details: Dd2, 72 h; remark: listed apart in the source
Description: Antimalarial activity against wild-type Plasmodium falciparum Dd2 assessed as reduction in parasitemia incubated for 72 hrs by SYBR green I dye based analysis

Plasmodium falciparum [8] = assay: Antimalarial activity against Plasmodium falciparum harboring PI4K S1320L mutation assessed as reduction in parasitemia incubated for 72 hrs by SYBR green I dye based analysis; type: functional, organism-based
[9] = Volume of distribution at steady state in Balb/C mouse at 3 mg/kg, iv; type: ADME, organism-based; details: in vivo, read-out: Vdss
Plasmodium falciparum [10] = assay: Antimalarial activity against Plasmodium falciparum harboring AcAS A597V mutation assessed as reduction in parasitemia incubated for 72 hrs by SYBR green I dye based analysis; type: functional, organism-based
Plasmodium falciparum [11] = assay: Antiplasmodial activity against multidrug-resistant Plasmodium falciparum Dd2 at ring stage infected in A+ erythrocytes assessed as parasite growth reduction incubated for 72 hrs by SYBR Green I dye based analysis; type: functional, organism-based; details: Dd2, Erythrocyte
Plasmodium falciparum [12] = assay: Antiplasmodial activity against drug-sensitive Plasmodium falciparum 3D7 at ring stage infected in A+ erythrocytes assessed as parasite growth reduction incubated for 72 hrs by SYBR Green I dye based analysis; type: functional, organism-based; details: 3D7, Erythrocyte
Plasmodium falciparum [13] = assay: Resistance index, ratio of EC50 for multidrug-resistant Plasmodium falciparum Dd2 at ring stage infected in A+ erythrocytes to EC50 for drug-sensitive Plasmodium falciparum 3D7 at ring stage infected in A+ erythrocytes; type: organism-based; details: human
[14] = (§1) Cytotoxicity against human MCF7 cells assessed as reduction in cell viability incubated for 48 hrs by MTS assay; type: toxicity, cell-based; details: human, MCF7 cells
[15] = Selectivity index, ratio of EC50 for human HepG2 cells to EC50 for multidrug-resistant Plasmodium falciparum Dd2 at ring stage infected in A+ erythrocytes; type: toxicity, cell-based; details: read-out: Ratio EC50
[16] = Selectivity index, ratio of EC50 for human MCF7 cells to EC50 for multidrug-resistant Plasmodium falciparum Dd2 at ring stage infected in A+ erythrocytes; type: toxicity, cell-based; details: read-out: Ratio EC50
[17] = (§2) Cytotoxicity against human HepG2 cells assessed as reduction in cell viability incubated for 48 hrs by MTS assay; type: toxicity, cell-based; details: human, HepG2 cells
Plasmodium falciparum [18] = assay: Antimalarial activity against Plasmodium falciparum at ring stage infected erythrocytes assessed as reduction in parasitemia measured after 60 hrs by flow cytometry; type: functional, organism-based; details: Erythrocyte
Plasmodium falciparum [19] = assay: (§3) Antimalarial activity against artemisinin-sensitive synchronized early ring stage Plasmodium falciparum IPC 5188 (MRA-1239) clinical isolate assessed as decrease in parasite survival at ring stage at 10 times EC50 treated for 6 hrs followed by compound removal measured after 72 hrs by geimsa staining based microscopy; type: functional, organism-based
Plasmodium falciparum [20] = assay: as §3, with “artemisinin/piperaquine-resistant” for “artemisinin-sensitive”, “6261 (MRA-1284)” for “5188 (MRA-1239)”, “48” for “6”; type: functional, organism-based
Plasmodium falciparum [21] = assay: as §3, with “artemisinin-resistant” for “artemisinin-sensitive”, “5202 (MRA-1240)” for “5188 (MRA-1239)”; type: functional, organism-based
Plasmodium falciparum [22] = assay: as §3, with “artemisinin-resistant” for “artemisinin-sensitive”, “5202 (MRA-1240)” for “5188 (MRA-1239)”, “48” for “6”; type: functional, organism-based
Plasmodium falciparum [23] = assay: Antimalarial activity against synchronized early ring stage Plasmodium falciparum 3D7 (MRA-152) clinical isolate assessed as decrease in parasite survival at ring stage at 10 times EC50 treated for 48 hrs followed by compound removal measured after 72 hrs by geimsa staining based microscopy; type: functional, organism-based
[24] = Metabolic stability in mouse liver microsomes assessed as intrinsic clearance; type: ADME, Liver cells
Plasmodium falciparum [25] = assay: as §3, with “artemisinin/piperaquine-resistant” for “artemisinin-sensitive”, “6261 (MRA-1284)” for “5188 (MRA-1239)”; type: functional, organism-based
Plasmodium falciparum [26] = assay: as §3, with “artemisinin-resistant/piperaquine-sensitive” for “artemisinin-sensitive”, “5202 (MRA-1240)” for “5188 (MRA-1239)”, “6 to 48” for “6”; type: functional, organism-based
Plasmodium falciparum [27] = assay: as §3, with “artemisinin/piperaquine-sensitive” for “artemisinin-sensitive”, “6 to 48” for “6”; type: functional, organism-based
Plasmodium falciparum [28] = assay: (§4) Antimalarial activity against synchronized early ring stage Plasmodium falciparum 3D7 (MRA-152) clinical isolate assessed as decrease in parasite survival at ring stage at 10 times EC50 treated for 6 to 48 hrs followed by compound removal measured after 72 hrs by geimsa staining based microscopy; type: functional, organism-based
Plasmodium falciparum [29] = assay: Antimalarial activity against synchronized early ring stage Plasmodium falciparum 3D7 (MRA-152) clinical isolate assessed as decrease in parasite survival at ring stage at 10 times EC50 treated for 6 hrs followed by compound removal measured after 72 hrs by geimsa staining based microscopy; type: functional, organism-based
Plasmodium falciparum [30] = assay: as §4, with “against artemisinin/piperaquine-resistant” for “against”, “IPC 6261 (MRA-1284)” for “3D7 (MRA-152)”; type: functional, organism-based
MCF7 = assay: as §1; type: toxicity, cell-based; details: mcf7
Plasmodium falciparum [31] = assay: as §3, with “48” for “6”; type: functional, organism-based
[32] = Metabolic stability in mouse liver microsomes assessed as half life; type: ADME, Liver cells
HepG2 = assay: as §2; type: toxicity, cell-based; details: hepg2

Chain of Ephrin type-A receptor 2 (P29317 whole entry): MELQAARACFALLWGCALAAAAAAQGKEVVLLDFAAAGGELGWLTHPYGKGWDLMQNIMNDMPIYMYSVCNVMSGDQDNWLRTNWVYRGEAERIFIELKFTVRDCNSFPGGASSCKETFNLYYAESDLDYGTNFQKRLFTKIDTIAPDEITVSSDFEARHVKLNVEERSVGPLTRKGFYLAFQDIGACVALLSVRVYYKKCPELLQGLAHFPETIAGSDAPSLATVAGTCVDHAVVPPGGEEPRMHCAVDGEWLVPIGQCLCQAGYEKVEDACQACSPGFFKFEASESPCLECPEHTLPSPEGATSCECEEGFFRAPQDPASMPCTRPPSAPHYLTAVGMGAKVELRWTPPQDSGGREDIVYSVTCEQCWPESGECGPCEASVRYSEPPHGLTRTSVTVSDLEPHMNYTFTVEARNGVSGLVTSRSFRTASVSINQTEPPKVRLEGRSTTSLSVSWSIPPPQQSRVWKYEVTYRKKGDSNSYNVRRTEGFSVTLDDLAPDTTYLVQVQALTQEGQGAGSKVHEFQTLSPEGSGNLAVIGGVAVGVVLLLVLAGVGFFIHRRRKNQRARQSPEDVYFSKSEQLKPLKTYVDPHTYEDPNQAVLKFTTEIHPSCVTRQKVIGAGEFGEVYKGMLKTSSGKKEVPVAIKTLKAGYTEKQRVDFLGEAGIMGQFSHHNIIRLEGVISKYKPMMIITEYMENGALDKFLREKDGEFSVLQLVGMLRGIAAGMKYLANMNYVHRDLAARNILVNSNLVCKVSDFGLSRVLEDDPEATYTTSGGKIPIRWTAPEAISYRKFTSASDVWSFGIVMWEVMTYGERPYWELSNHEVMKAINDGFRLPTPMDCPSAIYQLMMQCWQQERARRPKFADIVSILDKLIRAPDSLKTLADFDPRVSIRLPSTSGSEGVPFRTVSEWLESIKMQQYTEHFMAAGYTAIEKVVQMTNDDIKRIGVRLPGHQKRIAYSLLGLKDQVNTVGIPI

C[C@H]1[C@@H](O)O[C@@H]2O[C@@]3(C)CC[C@H]4[C@H](C)CC[C@@H]1[C@@]24OO3 [ARTENIMOL]
log(activity) (Plasmodium falciparum [1]): 3.93
T99.9% (Plasmodium falciparum [2]): 31 h
Time (Plasmodium falciparum [3]): 0 h

CCN1CCN(Cc2ccc(NC(=O)c3cc(NC(=O)c4cncc(-c5cccs5)c4)cc(OC)c3)cc2C(F)(F)F)CC1
EC50 (Plasmodium falciparum [4]): 341 nM
IC50 (Ephrin type-A receptor 2): > 10000 nM

CCN1CCN(Cc2ccc(NC(=O)c3ccc(C)c(NC(=O)c4cncc(-c5cccs5)c4)c3)cc2C(F)(F)F)CC1
EC50 (Plasmodium falciparum [4]): 3910 nM
IC50 (Ephrin type-A receptor 2): 11 nM

CC1(C)c2nc(-c3ccc(F)cc3)c(Nc3ccc(Cl)cc3)n2CCN1C(=O)CN
EC50 (Plasmodium falciparum [5]): 1380 nM
half-life [6]: 8.9 h
EC50 (Plasmodium falciparum [7]): 1.8 nM
EC50 (Plasmodium falciparum [8]): 1.9 nM
Vd [9]: 11.8 L/kg
EC50 (Plasmodium falciparum [10]): 1.1 nM

CCN1CCN(Cc2ccc(NC(=O)c3cc(C)cc(NC(=O)c4cncc(-c5cccs5)c4)c3)cc2C(F)(F)F)CC1
EC50 (Plasmodium falciparum [11]): 372 nM
EC50 (Plasmodium falciparum [12]): 235 nM
Ratio EC50 (Plasmodium falciparum [13]): 1.6
EC50 at 48 h [14]: 5220 nM
selectivity ratio [15]: 8.6
selectivity ratio [16]: 14
EC50 at 48 h [17]: 3200 nM

Cc1ccc(NC(=O)c2ccc(CN3CC[C@H](N(C)C)C3)c(C(F)(F)F)c2)cc1Nc1nccc(-c2cncnc2)n1 [BAFETINIB]
EC50 (Plasmodium falciparum [18]): 1300 nM

CCN1CCN(Cc2ccc(NC(=O)c3cc(Cl)cc(NC(=O)c4cncc(-c5ccc(C#N)cc5)c4)c3)cc2C(F)(F)F)CC1
Activity (Plasmodium falciparum [19]): inactive
Activity (Plasmodium falciparum [20]): Active
EC50 (Plasmodium falciparum [11]): 36 nM
Activity (Plasmodium falciparum [21]): inactive
EC50 (Plasmodium falciparum [12]): 36 nM
Activity (Plasmodium falciparum [22]): Active
Activity (Plasmodium falciparum [23]): Active
intrinsic clearance [24]: 16 µL/min/mg
log(activity) (Plasmodium falciparum [1]): 5.12
Activity (Plasmodium falciparum [25]): inactive
T99.9% (Plasmodium falciparum [2]): < 32 h
EC50 (Plasmodium falciparum [26]): 41.5 nM
EC50 (Plasmodium falciparum [27]): 43.9 nM
EC50 (Plasmodium falciparum [28]): 53.5 nM
Activity (Plasmodium falciparum [29]): inactive
Ratio EC50 (Plasmodium falciparum [13]): 1
Time (Plasmodium falciparum [3]): 0 h
EC50 (Plasmodium falciparum [30]): 64.9 nM
EC50 (MCF7): 2190 nM
Activity (Plasmodium falciparum [31]): Active
selectivity ratio [15]: 41
selectivity ratio [16]: 61
t1/2 [32]: 0.708 h
EC50 (HepG2): 1460 nM

O=C1C(O)=C([C@H]2CC[C@H](c3ccc(Cl)cc3)CC2)C(=O)c2ccccc21 [ATOVAQUONE]
log(activity) (Plasmodium falciparum [1]): 2.95
T99.9% (Plasmodium falciparum [2]): 101 h
Time (Plasmodium falciparum [3]): 72 h

Cc1cn(-c2cc(NC(=O)c3ccc(C)c(Nc4nccc(-c5cccnc5)n4)c3)cc(C(F)(F)F)c2)cn1 [NILOTINIB]
EC50 (Plasmodium falciparum [18]): < 1000 nM
